Experimental data taken from PubChem BioAssay AID328 (DTP/NCI, 2004).
Several values for one entry are separate records, joined by “and”; a condition that tells them apart may be missing. Equal entries are not always repeated. Inconclusive results and toxic doses are left out. Non-standard residues stand in square brackets, D forms with d. Residues, ends and D or L forms follow the SMILES beside them. ξ: configuration not given here. *: point of attachment. Cbz = O=C(OCc1ccccc1)*; ξK = NCCCCC(N)C(=O)O

Tested on: BDF1 mice, P388 leukemia ip, median survival T/C
Assay: NCI In Vivo Anticancer Drug Screen. Data for tumor model P388 Leukemia (intraperitoneal) in B6D2F1 (BDF1) mice
Settings: endpoint: median survival time, higher = longer survival
How it was run: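 Each value expresses how treatment altered survival: treated-mouse outcome over vehicle-mouse outcome, both groups bearing the transplanted tumour.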

[1] = dose: 100.0 mg/kg/injection, schedule: Q01DX009 (ip), vehicle: saline
[2] = dose: 100.0 mg/kg/injection, schedule: Q04DX003 (ip), vehicle: saline
[3] = dose: 200.0 mg/kg/injection, schedule: Q01DX009 (ip), vehicle: saline
[4] = dose: 200.0 mg/kg/injection, schedule: Q04DX003 (ip), vehicle: saline
[5] = dose: 400.0 mg/kg/injection, schedule: Q01DX009 (ip), vehicle: saline
[6] = dose: 400.0 mg/kg/injection, schedule: Q04DX003 (ip), vehicle: saline
[7] = dose: 25.0 mg/kg/injection, schedule: Q01DX009 (ip), vehicle: saline with Tween-80
[8] = dose: 50.0 mg/kg/injection, schedule: Q01DX009 (ip), vehicle: saline with Tween-80
[9] = dose: 200.0 mg/kg/injection, schedule: Q01DX009 (ip), vehicle: saline with Tween-80
[10] = dose: 100.0 mg/kg/injection, schedule: Q01DX009 (ip), vehicle: saline with Tween-80
[11] = dose: 100.0 mg/kg/injection, schedule: Q04DX003 (ip), vehicle: Klucel (hydroxypropylcellulose) (HPC)
[12] = dose: 200.0 mg/kg/injection, schedule: Q04DX003 (ip), vehicle: Klucel (hydroxypropylcellulose) (HPC)
[13] = dose: 50.0 mg/kg/injection, schedule: Q01DX009 (ip), vehicle: saline
[14] = dose: 50.0 mg/kg/injection, schedule: Q04DX003 (ip), vehicle: saline with Tween-80
[15] = dose: 100.0 mg/kg/injection, schedule: Q04DX003 (ip), vehicle: saline with Tween-80
[16] = dose: 50.0 mg/kg/injection, schedule: Q01DX009 (ip), vehicle: Klucel (hydroxypropylcellulose) (HPC)

Cc1ccccc1C(c1ccccc1C)c1ccccc1C(=O)O
T/C (dose: 100.0 mg/kg/injection, schedule: Q01DX001 (ip), vehicle: Klucel (hydroxypropylcellulose) (HPC)): 113 % of control | T/C [1]: 100 % of control | T/C [2]: 91 % of control | T/C (dose: 200.0 mg/kg/injection, schedule: Q01DX001 (ip), vehicle: Klucel (hydroxypropylcellulose) (HPC)): 109 % of control | T/C [3]: 104 % of control | T/C [4]: 100 % of control | T/C (dose: 400.0 mg/kg/injection, schedule: Q01DX001 (ip), vehicle: Klucel (hydroxypropylcellulose) (HPC)): 109 % of control | T/C [5]: 95 % of control | T/C [6]: 100 % of control

O=C(O)CCCOc1ccc(Cl)cc1Cl
T/C [1]: 100 % of control | T/C [3]: 104 % of control | T/C [5]: 95 % of control

CC1(CCNC2CCCCC2)Oc2ccccc2O1
T/C (dose: 50.0 mg/kg/injection, schedule: Q04DX002 (ip), vehicle: Klucel (hydroxypropylcellulose) (HPC)): 99 % of control | T/C (dose: 100.0 mg/kg/injection, schedule: Q04DX002 (ip), vehicle: Klucel (hydroxypropylcellulose) (HPC)): 101 % of control

Cn1c(=O)oc2ccc(Cl)cc21
T/C [7]: 122 % of control | T/C [8]: 115 % of control | T/C [9]: 91 % of control

COc1cc2c(cc1OC)/C(=N\O)CCCC2
T/C [8]: 119 % of control | T/C [10]: 114 % of control | T/C [11]: 100 % of control | T/C [9]: 90 % of control | T/C [12]: 100 % of control | T/C (dose: 400.0 mg/kg/injection, schedule: Q04DX003 (ip), vehicle: Klucel (hydroxypropylcellulose) (HPC)): 100 % of control

CCOC(=O)c1c(N)ssc1=S
T/C (dose: 6.25 mg/kg/injection, schedule: Q01DX009 (ip), vehicle: saline): 101 % of control | T/C (dose: 12.5 mg/kg/injection, schedule: Q01DX009 (ip), vehicle: saline): 113 % of control | T/C (dose: 25.0 mg/kg/injection, schedule: Q01DX009 (ip), vehicle: saline): 100 % of control | T/C [13]: 111 % of control | T/C [1]: 113 % of control | T/C [2]: 112 % of control | T/C [3]: 93 % of control and 104 % of control | T/C [4]: 86 % of control | T/C (dose: 300.0 mg/kg/injection, schedule: Q01DX009 (ip), vehicle: saline): 91 % of control

CCOC(=O)Cc1csc(NNC(=O)c2ccccc2)n1
T/C [8]: 108 % of control | T/C [10]: 99 % of control | T/C [9]: 101 % of control

CCCCCCCCCCCCCCCCN(C)c1ccc(C=O)cc1
T/C [1]: 104 % of control and 110 % of control | T/C [2]: 118 % of control | T/C [3]: 100 % of control and 105 % of control | T/C [4]: 109 % of control | T/C [5]: 113 % of control | T/C [6]: 109 % of control

CC(C)(O)C(NC(N)=O)c1ccccc1 (stereo unspecified)
T/C [8]: 104 % of control | T/C [10]: 101 % of control | T/C [9]: 100 % of control

O=C(O)c1cc(N=Nc2ccccc2)ccc1O
T/C [14]: 104 % of control | T/C [15]: 100 % of control

O=C(O)c1ccc(CCCC2CCCC2)cc1
T/C [11]: 109 % of control | T/C [12]: 100 % of control

CCCC(C)(C)SSC(C)(C)CCC
T/C [7]: 90 % of control | T/C [8]: 90 % of control and 100 % of control | T/C [10]: 95 % of control and 118 % of control | T/C [15]: 90 % of control | T/C (dose: 200.0 mg/kg/injection, schedule: Q04DX003 (ip), vehicle: saline with Tween-80): 113 % of control

NNCc1c(C(=O)O)oc2ccccc12
T/C [8]: 99 % of control | T/C [10]: 100 % of control

O=CN1CCN(c2ccc([N+](=O)[O-])c3nonc23)CC1
T/C (dose: 15.0 mg/kg/injection, schedule: Q01DX009 (ip), vehicle: saline with Tween-80): 103 % of control | T/C (dose: 20.0 mg/kg/injection, schedule: Q04DX003 (ip), vehicle: saline with Tween-80): 100 % of control | T/C (dose: 30.0 mg/kg/injection, schedule: Q01DX009 (ip), vehicle: saline with Tween-80): 100 % of control | T/C (dose: 40.0 mg/kg/injection, schedule: Q04DX003 (ip), vehicle: saline with Tween-80): 99 % of control | T/C (dose: 80.0 mg/kg/injection, schedule: Q04DX003 (ip), vehicle: saline with Tween-80): 95 % of control

O=C1C=C(Cl)C(=O)C(Cl)=C1
T/C (dose: 3.0 mg/kg/injection, schedule: Q01DX009 (ip), vehicle: Klucel (hydroxypropylcellulose) (HPC)): 100 % of control | T/C (dose: 6.0 mg/kg/injection, schedule: Q01DX009 (ip), vehicle: Klucel (hydroxypropylcellulose) (HPC)): 87 % of control | T/C (dose: 6.25 mg/kg/injection, schedule: Q04DX003 (ip), vehicle: Klucel (hydroxypropylcellulose) (HPC)): 95 % of control | T/C (dose: 12.5 mg/kg/injection, schedule: Q04DX003 (ip), vehicle: Klucel (hydroxypropylcellulose) (HPC)): 100 % of control

NC(=O)CC1=NCCc2ccccc21
T/C [13]: 95 % of control | T/C (dose: 50.0 mg/kg/injection, schedule: Q04DX003 (ip), vehicle: saline): 100 % of control | T/C [1]: 91 % of control | T/C [2]: 100 % of control | T/C [3]: 91 % of control | T/C [4]: 113 % of control

C=C(C)C1CCC2=CC(CC3(C)OC3C3=CC(C(=O)OC)=C(C1)O3)OC2=O (stereo unspecified)
T/C [16]: 86 % of control

ClCCN(CCCl)CCCN1c2ccccc2Sc2ccc(Cl)cc21
T/C (dose: 3.12 mg/kg/injection, schedule: Q04DX003 (ip), vehicle: saline): 97 % of control | T/C (dose: 6.25 mg/kg/injection, schedule: Q04DX003 (ip), vehicle: saline with Tween-80): 154 % of control | T/C (dose: 6.25 mg/kg/injection, schedule: Q04DX003 (ip), vehicle: saline): 97 % of control | T/C (dose: 12.5 mg/kg/injection, schedule: Q04DX003 (ip), vehicle: saline): 94 % of control

Cc1n[nH]c(=O)[nH]c1=O
T/C (dose: 12.5 mg/kg/injection, schedule: Q01DX009 (ip), vehicle: Klucel (hydroxypropylcellulose) (HPC)): 100 % of control | T/C (dose: 25.0 mg/kg/injection, schedule: Q01DX009 (ip), vehicle: Klucel (hydroxypropylcellulose) (HPC)): 109 % of control | T/C [16]: 100 % of control | T/C (dose: 100.0 mg/kg/injection, schedule: Q01DX009 (ip), vehicle: Klucel (hydroxypropylcellulose) (HPC)): 91 % of control

NNc1ncnc2c1ccn2C1OC(CO)C(O)C1O (stereo unspecified)
T/C [7]: 150 % of control | T/C (dose: 25.0 mg/kg/injection, schedule: Q04DX003 (ip), vehicle: saline with Tween-80): 104 % of control | T/C (dose: 37.5 mg/kg/injection, schedule: Q01DX009 (ip), vehicle: saline with Tween-80): 155 % of control | T/C [8]: 100 % of control | T/C [14]: 108 % of control | T/C [15]: 108 % of control

CCCCCCCCCCCC(=O)CC(SCC)c1ccccc1 (stereo unspecified)
T/C [8]: 96 % of control | T/C [10]: 87 % of control | T/C [9]: 89 % of control

O=C1C(=C(C(F)(F)F)C(F)(F)F)CCc2ccc([N+](=O)[O-])cc21
T/C [15]: 110 % of control | T/C (dose: 400.0 mg/kg/injection, schedule: Q04DX003 (ip), vehicle: saline with Tween-80): 110 % of control

NCC(=O)NC(CCCCNC(=O)OCc1ccccc1)C(=O)O (stereo unspecified) (H-Gly-[ξK](Cbz)-OH)
T/C (dose: 12.5 mg/kg/injection, schedule: Q01DX005 (ip), vehicle: saline with Tween-80): 106 % of control | T/C (dose: 25.0 mg/kg/injection, schedule: Q01DX005 (ip), vehicle: saline with Tween-80): 104 % of control

Cc1ccc2c(c1)Sc1ccc3ccccc3c1N2
T/C (dose: 100.0 mg/kg/injection, schedule: Q04DX003 (ip), vehicle: saline sonified): 113 % of control | T/C (dose: 200.0 mg/kg/injection, schedule: Q04DX003 (ip), vehicle: saline sonified): 90 % of control | T/C (dose: 400.0 mg/kg/injection, schedule: Q04DX003 (ip), vehicle: saline sonified): 100 % of control

COc1cc(C(=O)c2cocc2C(=O)c2ccc3c(c2)OCO3)cc(OC)c1OC
T/C (dose: 25.0 mg/kg/injection, schedule: Q01DX010 (ip), vehicle: saline): 108 % of control | T/C (dose: 50.0 mg/kg/injection, schedule: Q01DX010 (ip), vehicle: other): 123 % of control | T/C (dose: 50.0 mg/kg/injection, schedule: Q01DX010 (ip), vehicle: saline): 91 % of control | T/C (dose: 50.0 mg/kg/injection, schedule: Q01DX010 (ip), vehicle: water): 100 % of control | T/C (dose: 100.0 mg/kg/injection, schedule: Q01DX010 (ip), vehicle: other): 180 % of control | T/C (dose: 100.0 mg/kg/injection, schedule: Q01DX010 (ip), vehicle: saline): 86 % of control and 100 % of control | T/C (dose: 100.0 mg/kg/injection, schedule: Q01DX010 (ip), vehicle: water): 111 % of control | T/C (dose: 200.0 mg/kg/injection, schedule: Q01DX010 (ip), vehicle: other): 165 % of control | T/C (dose: 200.0 mg/kg/injection, schedule: Q01DX010 (ip), vehicle: saline): 90 % of control | T/C (dose: 200.0 mg/kg/injection, schedule: Q01DX010 (ip), vehicle: water): 155 % of control | T/C (dose: 400.0 mg/kg/injection, schedule: Q01DX010 (ip), vehicle: other): 173 % of control
